Data reported in patent US20060281100A1, “Thiotriphosphate nucleotide dye terminators” (priority 2005, published 2006).

Test: Spectral measurements: absorbance and emission spectra, Beckman DU7400 spectrophotometer, water media
Format: physicochemical
Description: Unless otherwise stated, ultraviolet spectra (UV) were recorded for samples dissolved in MeOH or water contained in a one cm path length quartz cell using a Beckman DU-7400 spectrophotometer.

Abs (H2O), Cyanine Dyes (absorbance maximum of the free cyanine dye in water): 649 nm | Em (H2O) (emission maximum in water, column stands after the cyanine dye columns): 675 nm
SMILES: CCN1/C(=C/C=C/C=C/C2=[N+](CCCCCC(=O)O)c3ccc(S(=O)(=O)O)cc3C2(C)C)C(C)(C)c2cc(S(=O)(=O)[O-])ccc21 [Cy5]
